Reference: US8815934B2, “2-Phenyl-1-[4-(2-Aminoethoxy)-Benzyl]-Indole and estrogen formulations” (Wyeth LLC, priority 1998, dated 2014)

Experiments:
[1] = target: T1, estrogen receptor (Homo sapiens (Human), UniProt P03372); assay: In vitro estrogen receptor binding assay; settings: competition with [3H]17β-estradiol, cytosol of CHO cells overexpressing the estrogen receptor; for IC50: read-out: Receptor Binding IC50's
Protocol: CHO cells overexpressing the estrogen receptor were grown in 150 mm^2 dishes in DMEM+10% dextran coated charcoal, stripped fetal bovine serum. The plates were washed twice with PBS and once with 10 mM Tris-HCl, pH 7.4, 1 mM EDTA. Cells were harvested by scraping the surface and then the cell suspension was placed on ice. Cells were disrupted with a hand-held motorized tissue grinder using two, 10-second bursts. […] The cytosol was then frozen and stored at −80° C. Protein concentration of the cytosol was estimated using the BCA assay with reference standard protein.
100 uG/100 uL of the receptor preparation was aliquoted per well. […] The plate was incubated at room temperature for 2.5 h. […] 200 uL of the supernatant solution was then removed for scintillation counting. Samples were counted to 2% or 10 minutes, whichever occurs first.
Counts per minute (CPM) of radioactivity were automatically converted to disintegrated per minute (DPM) by the Beckman LS 7500 Scintillation Counter using a set of quenched standards to generate a H No. for each sample.
For the generation of IC50 curves, % binding is plotted vs compound. […] For a description of these methods, see Hulme, E. C., ed. […] Receptor-Ligand Interactions: A Practical Approach. IRL Press, New York. (see especially chapter 8).

[2] = target: T1, estrogen receptor; assay: 2×VIT ERE infection luciferase assay; format: cell-based; settings: for Infection Luciferase Activity, 1 uM + 17β estradiol: 1 uM compound + 1 nM 17β-estradiol (estrogen antagonism); for Infection Luciferase Activity, 1 uM: 1 uM compound alone, percentage of activity as compared to 17β-estradiol
Protocol: Chinese Hamster Ovary cells (CHO) which had been stably transfected with the human estrogen receptor were maintained in DMEM+10% fetal bovine serum (FBS). 48 h prior to treatment the growth medium was replaced with DMEM lacking phenol red+10% dextran coated charcoal stripped FBS (treatment medium). Cells were plated at a density of 5000 cells/well in 96-well plates containing 200 μL of medium/well.
Reporter DNA (Promega plasmid pGL2 containing two tandem copies of the vitellogenin ERE in front of the minimal thymidine kinase promoter driving the luciferase gene) was combined with the B-galactosidase expression plasmid pCH110 (Pharmacia) and carrier DNA (pTZ18U) in the following ratio:
20 uL of this mixture was added to each well of cells and remained on the cells for 16 h. […] Each treatment condition was performed on 8 wells (n=8) which were incubated for 24 h prior to the luciferase assay.
After removing the PBS, 25 uL of Promega lysis buffer was added to each well and allowed to stand at room temperature for 15 min, followed by 15 min at −80° C. and 15 min at 37° C. 20 uL of lysate was transferred to an opaque 96 well plate for luciferase activity evaluation and the remaining lysate (5 uL) was used for the B-galactosidase activity evaluation (normalize transfection). The luciferan substrate (Promega) was added in 100 uL aliquots to each well automatically by the luminometer and the light produced (relative light units) was read 10 seconds after addition.
To the remaining 5 uL of lysate 45 uL of PBS was added. Then 50 uL of Promega B-galactosidase 2× assay buffer was added, mixed well and incubated at 37° C. for 1 hour. A plate containing a standard curve (0.1 to 1.5 milliunits in triplicate) was set up for each experimental run. The plates were analyzed on a Molecular Devices spectrophotometric plate reader at 410 nm. The optical densities for the unknown were converted to milliunits of activity by mathematical extrapolation from the standard curve.
The luciferase data was generated as relative light units (RLUs) accumulated during a 10 second measurement and automatically transferred to a JMP (SAS Inc) file where background RLUs were subtracted. The B-galactosidase values were automatically imported into the file and these values were divided into the RLUs to normalize the data. The mean and standard deviations were determined from a n=8 for each treatment. […] These techniques are described by Tzukerman, M. T., Esty, A., Santiso-Mere, D., Danielian, P., Parker, M. G., Stein, R. B., Pike, J. W. and McDonnel, D. P. (1994). Human estrogen receptor transactivational capacity was determined by both cellular and promoter context and mediated by two functionally distinct intramolecular regions (see Molecular Endocrinology, 8:21-30).

[3] = system: Immature Sprague-Dawley rats; assay: Rat uterotrophic/antiuterotrophic bioassay; format: in vivo; settings: immature female rats, daily ip; for Uterine wt mg 100 uG cmpd + 1uG 17β-estradiol: 100 uG compound + 1 uG 17β-estradiol; for Uterine wt mg 100 uG cmpd: 100 uG compound, wet weight
Protocol: The estrogenic and antiestrogenic properties of the compounds were determined in an immature rat uterotrophic assay (4 day) that (as described previously by L. J. Black and R. L. Goode, Life Sciences, 26, 1453 (1980)). Immature Sprague-Dawley rats (female, 18 days old) were tested in groups of six. […] On day 4 the animals were sacrificed by CO2 asphyxiation and their uteri were removed and stripped of excess lipid, any fluid removed and the wet weight determined. A small section of one horn was submitted for histology and the remainder used to isolate total RNA in order to evaluate complement component 3 gene expression.

[4] = system: Ishikawa cells; assay: Ishikawa cell alkaline phosphatase assay; format: cell-based, human; settings: for % Activation (Ishikawa alkaline phosphatase) with 1 nM 17β-estradiol: compound + 1 nM 17β-estradiol (antiestrogen test); for % Activation (Ishikawa alkaline phosphatase): compound alone, percent of response related to 1 nM 17β-estradiol; for ED50 of estrogenic activity by the alkaline phosphatase method: Ishikawa cells, 48 h treatment, reference standards
Protocol: Cells were treated for 48 h prior to assay. […] Sample population for at each dose was n=8. […] Plates are placed at -80° C. for a minimum of […]. Plates are thawed at 37° C. followed by the addition of 150 μL of 0.1 M Tris-HCl, pH 9.8, containing 4 mM para-nitrophenylphosphate (pNPP) to each well (final concentration, 3 mM pNPP). Absorbance and slope calculations were made using the […] Application program (Bio-Tek Instruments, Inc., Winooski, Vt.). […] The four listed in the following were used as reference standards: A description of these methods is described by Holinka, […]., Kuramoto, H. and Gurpide, E. (1986) Effects of steroid hormones and antisteroids on alkaline phosphatase activity in human endometrial cancer cells (Ishikawa Line). Cancer Research, 46:2771-2774, and by […]. and […] simple and sensitive microtiter plate estrogen bioassay based on stimulation alkaline phosphatase in Ishikawa cells; […] Endocrinology, 6:2757-2762.

T1 sequence (P03372 whole entry): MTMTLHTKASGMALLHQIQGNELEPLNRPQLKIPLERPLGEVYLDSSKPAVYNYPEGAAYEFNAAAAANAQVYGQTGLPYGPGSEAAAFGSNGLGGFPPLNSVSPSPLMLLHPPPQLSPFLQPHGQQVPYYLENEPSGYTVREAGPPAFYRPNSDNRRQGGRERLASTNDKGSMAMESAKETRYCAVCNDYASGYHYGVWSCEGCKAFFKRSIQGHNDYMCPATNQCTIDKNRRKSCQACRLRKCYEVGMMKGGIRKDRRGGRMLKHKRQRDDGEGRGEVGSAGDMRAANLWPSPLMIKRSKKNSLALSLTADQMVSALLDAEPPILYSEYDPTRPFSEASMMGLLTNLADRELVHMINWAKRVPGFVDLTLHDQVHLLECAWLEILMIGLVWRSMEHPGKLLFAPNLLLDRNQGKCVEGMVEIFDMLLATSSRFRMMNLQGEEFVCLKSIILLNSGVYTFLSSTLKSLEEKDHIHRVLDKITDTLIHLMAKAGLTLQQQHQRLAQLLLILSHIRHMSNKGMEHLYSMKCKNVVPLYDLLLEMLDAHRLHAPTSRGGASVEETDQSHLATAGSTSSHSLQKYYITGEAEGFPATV

Cc1c(-c2ccc(OC(=O)C(C)(C)C)cc2)n(Cc2ccc(OCCN3CCCCC3)cc2)c2ccc(OC(=O)C(C)(C)C)cc12 [No. 162, Di-pivalate ester of 2-(4-Hydroxy-phenyl)-3-methyl-1-[4-(2-piperidin-1-yl-ethoxy)-benzyl]-1H-indol-5-ol]
Receptor Binding IC50's [1]: Does not Bind | Infection Luciferase Activity, 1 uM + 17β estradiol [2]: −13% | Infection Luciferase Activity, 1 uM [2]: −14%

Cc1c(-c2ccc(C(F)(F)F)cc2)n(Cc2ccc(OCCN3CCCCC3)cc2)c2ccc(O)cc12 [No. 123, 3-Methyl-1-[4-(2-piperidin-1-yl-ethoxy)-benzyl]-2-(4-trifluoromethyl-phenyl)-1H-indol-5-ol]
Infection Luciferase Activity, 1 uM + 17β estradiol [2]: 1% | Infection Luciferase Activity, 1 uM [2]: −1% | Uterine wt mg 100 uG cmpd + 1uG 17β-estradiol [3]: 61.4 mg | Uterine wt mg 100 uG cmpd [3]: 39.2 mg

O=C(c1ccc(OCCN2CCCCC2)cc1)c1c(-c2ccc(O)cc2)sc2cc(O)ccc12 [raloxifene]
% Activation (Ishikawa alkaline phosphatase) with 1 nM 17β-estradiol [4]: 5% activity (5% with 1 nM 17β-estradiol) | % Activation (Ishikawa alkaline phosphatase) [4]: 5% activity (5% with 1 nM 17β-estradiol)

Cc1c(-c2ccc(O)cc2)n(Cc2ccc(OCCN3CCCCCC3)cc2)c2ccc(O)cc12 [No. 98, 1-[4-(2-Azepan-1-yl-ethoxy)-benzyl]-2-(4-hydroxy-phenyl)-3-methyl-1H-indol-5-ol]
% Activation (Ishikawa alkaline phosphatase) with 1 nM 17β-estradiol [4]: 1% activity (1% with 1 nM 17β-estradiol) | % Activation (Ishikawa alkaline phosphatase) [4]: 1% activity (1% with 1 nM 17β-estradiol) | Uterine wt mg 100 uG cmpd + 1uG 17β-estradiol [3]: 27.9 mg | Uterine wt mg 100 uG cmpd [3]: 29.4 mg

C[C@]12CC[C@@H]3c4ccc(O)cc4CC[C@H]3[C@@H]1C[C@@H](O)[C@@H]2O [estriol]
ED50 of estrogenic activity by the alkaline phosphatase method [4]: 0.13 nM

C[C@]12CC[C@@H]3c4ccc(O)cc4CC[C@H]3[C@@H]1CC[C@H]2O [17α-estradiol]
ED50 of estrogenic activity by the alkaline phosphatase method [4]: 1.42 nM

C[C@]12CC[C@@H]3c4ccc(O)cc4CC[C@H]3[C@@H]1CCC2=O [estrone]
ED50 of estrogenic activity by the alkaline phosphatase method [4]: 0.36 nM

Cc1c(-c2ccc3c(c2)OCO3)n(Cc2ccc(OCCN3CCCCC3)cc2)c2ccc(O)cc12 [No. 119, 2-Benzo[1.3]dioxol-5-yl-3-methyl-1-[4-(2-piperidin-1-yl-ethoxy)-benzyl]-1H-indol-5-ol]
IC50 [1]: 70 nM | Infection Luciferase Activity, 1 uM + 17β estradiol [2]: −1% | Infection Luciferase Activity, 1 uM [2]: −1%

Cc1c(-c2ccccc2)n(Cc2ccc(OCCN3CCCCC3)cc2)c2ccccc12 [No. 85, 4-{3-Methyl-1-[4-(2-piperidin-1-yl-ethoxy)-benzyl]-1H-indole}]
IC50 [1]: 450 nM | Infection Luciferase Activity, 1 uM + 17β estradiol [2]: 43% | Infection Luciferase Activity, 1 uM [2]: −2% | Uterine wt mg 100 uG cmpd + 1uG 17β-estradiol [3]: 92.4 mg | Uterine wt mg 100 uG cmpd [3]: 41.1 mg

Cc1c(-c2ccc(O)cc2)n(Cc2ccc(OCC[N+](C)(C)C)cc2)c2ccc(O)cc12.[I-] [No. 106, 2-(4-Hydroxy-phenyl)-3-methyl-1-[4-(2-dimethyl-1-yl-ethoxy)-benzyl]-1H-indol-5-ol methiodide]
IC50 [1]: 100 nM | Infection Luciferase Activity, 1 uM + 17β estradiol [2]: 81% | Infection Luciferase Activity, 1 uM [2]: 10%

N#Cc1c(-c2ccc(O)cc2)n(Cc2ccc(OCCN3CCCCC3)cc2)c2ccc(O)cc12 [No. 138, 5-Hydroxy-2-(4-Hydroxy-phenyl)-1-[4-(2-piperidin-1-yl-ethoxy)-benzyl]-1H-indole-3-carbonitrile]
Infection Luciferase Activity, 1 uM + 17β estradiol [2]: −1% | Infection Luciferase Activity, 1 uM [2]: −2% | Uterine wt mg 100 uG cmpd + 1uG 17β-estradiol [3]: 37.9 mg | Uterine wt mg 100 uG cmpd [3]: 28.4 mg

Cc1c(-c2ccc(OC3CCCC3)cc2)n(Cc2ccc(OCCN3CCCCC3)cc2)c2ccc(O)cc12 [No. 122, 2-(4-Cyclopenyloxy-phenyl)-3-methyl-1-[4-(2-piperidin-1-yl-ethoxy)-benzyl]-1H-indol-5-ol]
IC50 [1]: 80 nM | Infection Luciferase Activity, 1 uM + 17β estradiol [2]: 5% | Infection Luciferase Activity, 1 uM [2]: 1% | Uterine wt mg 100 uG cmpd + 1uG 17β-estradiol [3]: 38.7 mg | Uterine wt mg 100 uG cmpd [3]: 46.7 mg

Cc1c(-c2ccc(OC(C)C)cc2)n(Cc2ccc(OCCN3CCCCC3)cc2)c2ccc(O)cc12 [No. 120, 2-(4-Isopropoxy-phenyl)-3-methyl-1-[4-(2-1-yl-ethoxy)-benzyl]-1H-indol-5-ol]
IC50 [1]: 100 nM | Infection Luciferase Activity, 1 uM + 17β estradiol [2]: 1% | Infection Luciferase Activity, 1 uM [2]: −1%
